These molecules were tested against T1, hM5 (Homo sapiens, UniProt P08912) (assay: Calcium mobilization concentration-response (IC50 vs EC80 acetylcholine), CHO hM5). Details: CELL LINE hM5; calcium mobilization, EC80 acetylcholine addition; read-out: IC50.
T1 construct: expressed in transfected cells
T1 sequence (P08912 1-532): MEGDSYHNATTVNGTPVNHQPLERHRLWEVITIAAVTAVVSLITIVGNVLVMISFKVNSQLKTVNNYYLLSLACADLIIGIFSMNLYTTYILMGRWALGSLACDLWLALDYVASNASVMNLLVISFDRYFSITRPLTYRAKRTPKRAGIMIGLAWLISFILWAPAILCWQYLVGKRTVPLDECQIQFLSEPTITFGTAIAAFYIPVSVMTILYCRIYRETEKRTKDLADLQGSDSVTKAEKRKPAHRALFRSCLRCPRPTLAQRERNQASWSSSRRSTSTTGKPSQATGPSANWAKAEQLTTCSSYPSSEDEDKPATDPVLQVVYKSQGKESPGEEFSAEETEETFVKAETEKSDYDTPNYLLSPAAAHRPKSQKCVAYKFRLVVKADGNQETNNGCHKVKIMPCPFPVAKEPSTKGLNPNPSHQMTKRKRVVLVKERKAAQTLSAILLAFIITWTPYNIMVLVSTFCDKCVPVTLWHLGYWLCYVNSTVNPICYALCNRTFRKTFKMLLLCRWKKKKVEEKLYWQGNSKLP
Format: cell-based
Summary of the method: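 CHO cells stably expressing hM5, dye-loaded, in HBSS/20 mM HEPES/2.5 mM probenecid, pH 7.4. Compounds were pre-incubated 140 s before an EC80 acetylcholine challenge, with calcium flux read kinetically.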

| SMILES | IC50 [nM] |
| --- | --- |
| Cc1cc2c(cc1S(=O)(=O)N1CCC(c3nn4ncnc4cc3C)CC1)OCO2 [Compound 183, 7-methyl-6-(1-((6-methylbenzo[d][1,3]dioxol-5-yl)sulfonyl)piperidin-4-yl)-[1,2,4]triazolo[1,5-b]pyridazine] | > 10000 |
| [2H]C1([2H])Oc2ccc(S(=O)(=O)N3CCC(c4cn5ncnc5cc4OC)CC3)cc2C1([2H])[2H] [Compound 92, 6-(1-((2,3-dihydrobenzofuran-5-yl-2,2,3,3-d4)sulfonyl)piperidin-4-yl)-7-methoxy-[1,2,4]triazolo[1,5-a]pyridine] | > 10000 |
| Cc1cc2ncnn2cc1C1CCN(S(=O)(=O)c2cn(C)c(C)n2)CC1 [Compound 320, 6-(1-((1,2-dimethyl-1H-imidazol-4-yl)sulfonyl)piperidin-4-yl)-7-methyl-[1,2,4]triazolo[1,5-a]pyridine] | 7200 |
| CN1CCOc2ccc(S(=O)(=O)N3CC=C(c4cc5c(cc4Cl)OCO5)CC3)cc21 [Compound 353, 6-((4-(6-chlorobenzo[d][1,3]dioxol-5-yl)-3,6-dihydropyridin-1(2H)-yl)sulfonyl)-4-methyl-3,4-dihydro-2H-benzo[b][1,4]oxazine] | > 10000 |
| O=S(=O)(c1cnn2c1CCCC2)N1CC=C(c2cn3ncnc3cc2Cl)CC1 [Compound 242, 7-chloro-6-(1-((4,5,6,7-tetrahydropyrazolo[1,5-a]pyridin-3-yl)sulfonyl)-1,2,3,6-tetrahydropyridin-4-yl)-[1,2,4]triazolo[1,5-a]pyridine] | 5 |
| Cc1cc2ncnn2cc1C1CCN(S(=O)(=O)c2ccc3c(c2)nnn3C)CC1 [Compound 124, 1-methyl-5-((4-(7-methyl-[1,2,4]triazolo[1,5-a]pyridin-6-yl)piperidin-1-yl)sulfonyl)-1H-benzo[d][1,2,3]triazole] | > 10000 |
| Cc1cc2ncnn2nc1C1CCN(S(=O)(=O)c2cc3c(cc2F)OCC3)CC1 [Compound 181, 6-(1-((6-fluoro-2,3-dihydrobenzofuran-5-yl)sulfonyl)piperidin-4-yl)-7-methyl-[1,2,4]triazolo[1,5-b]pyridazine] | > 10000 |
| C=Cc1cc2ncnn2cc1C1=CCN(S(=O)(=O)c2cnn(C)c2C)CC1 [Compound 147, 6-(1-((1,5-dimethyl-1H-pyrazol-4-yl)sulfonyl)-1,2,3,6-tetrahydropyridin-4-yl)-7-vinyl-[1,2,4]triazolo[1,5-a]pyridine] | 51 |
| O=S(=O)(c1ccc2c(c1)CCO2)N1CCC(c2cc3cc[nH]c3nn2)CC1 [Compound 21, 3-(1-((2,3-dihydrobenzofuran-5-yl)sulfonyl)piperidin-4-yl)-7H-pyrrolo[2,3-c]pyridazine] | 2200 |
| Cc1ncc(S(=O)(=O)N2CCC(c3cn4ncnc4cc3Cl)CC2)n1C [Compound 294, 7-chloro-6-(1-((1,2-dimethyl-1H-imidazol-5-yl)sulfonyl)piperidin-4-yl)-[1,2,4]triazolo[1,5-a]pyridine] | 22 |
| Cc1c(C2CCN(S(=O)(=O)c3ccc4c(c3)CCO4)CC2)nn2ccnc2c1C [Compound 45, 6-(1-((2,3-dihydrobenzofuran-5-yl)sulfonyl)piperidin-4-yl)-7,8-dimethylimidazo[1,2-b]pyridazine] | > 10000 |
| Cc1cc2ncnn2cc1C1(O)CCN(S(=O)(=O)c2cnn(C)c2C)CC1 [Compound 308, 1-((1,5-Dimethyl-1H-pyrazol-4-yl)sulfonyl)-4-(7-methyl-[1,2,4]triazolo[1,5-a]pyridin-6-yl)piperidin-4-ol] | > 10000 |
| O=S(=O)(c1ccc2ncccc2c1)N1CCC(c2cc3cc[nH]c3nn2)CC1 [Compound 23, 6-((4-(7H-pyrrolo[2,3-c]pyridazin-3-yl)piperidin-1-yl)sulfonyl)quinoline] | 2560 |
| Cc1cc2nccn2nc1C1CCN(S(=O)(=O)c2ccc3c(c2)CCO3)CC1 [Compound 17, 6-(1-((2,3-dihydrobenzofuran-5-yl)sulfonyl)piperidin-4-yl)-7-methylimidazo[1,2-b]pyridazine] | 839 |
| Cc1c(C2CCN(S(=O)(=O)c3cnn4c3CCC4)CC2)cn2ncnc2c1F [Compound 268, 6-(1-((5,6-dihydro-4H-pyrrolo[1,2-b]pyrazol-3-yl)sulfonyl)piperidin-4-yl)-8-fluoro-7-methyl-[1,2,4]triazolo[1,5-a]pyridine] | 14 |
| Cc1nc2cc(C)c(C3CCN(S(=O)(=O)c4cc5c(cc4C)OCC5C)CC3)cn2n1 (stereo not drawn) [Compound 87] | 1300 |
| Cc1cc2ncnn2cc1[C@@H]1CCN(S(=O)(=O)c2cn(C)nc2C)C[C@H]1F (racemic) [Compound 172, (rac)-6-(trans-1-((1,3-dimethyl-1H-pyrazol-4-yl)sulfonyl)-3-fluoropiperidin-4-yl)-7-methyl-[1,2,4]triazolo[1,5-a]pyridine] | 275 |
| O=S(=O)(c1ccc2c(c1)CCO2)N1CCC(c2cc3[nH]ccc3cn2)CC1 [Compound 29, 6-(1-((2,3-dihydrobenzofuran-5-yl)sulfonyl)piperidin-4-yl)-1H-pyrrolo[3,2-c]pyridine] | 2000 |
| Cc1c(S(=O)(=O)N2CC=C(c3cc4c(cc3Cl)N(C)CCO4)CC2)cnn1C [Compound 376, 6-chloro-7-(1-((1,5-dimethyl-1H-pyrazol-4-yl)sulfonyl)-1,2,3,6-tetrahydropyridin-4-yl)-4-methyl-3,4-dihydro-2H-benzo[b][1,4]oxazine] | 1450 |
| Cc1cc2ncnn2cc1C1CCN(S(=O)(=O)c2ccc3c(c2)ncn3C)CC1 [Compound 189, 7-methyl-6-(1-((1-methyl-1H-benzo[d]imidazol-5-yl)sulfonyl)piperidin-4-yl)-[1,2,4]triazolo[1,5-a]pyridine] | > 10000 |

Same assay, conditions: CELL LINE hM5; vs EC80 acetylcholine; read-out: IC50

| SMILES | IC50 [nM] |
| --- | --- |
| Cc1cc2ncnn2cc1C1(F)CCN(S(=O)(=O)c2cn(C)nn2)CC1 [Compound 588, 6-(4-fluoro-1-((1-methyl-1H-1,2,3-triazol-4-yl)sulfonyl)piperidin-4-yl)-7-methyl-[1,2,4]triazolo[1,5-a]pyridine] | 2110 |
| [2H]C1([2H])CC(c2cn3ncnc3c(F)c2C)CC([2H])([2H])N1S(=O)(=O)c1cnc2sccn12 [Compound 537, 5-((4-(8-fluoro-7-methyl-[1,2,4]triazolo[1,5-a]pyridin-6-yl)piperidin-1-yl-2,2,6,6-d4)sulfonyl)imidazo[2,1-b]thiazole] | 11 |
| Cn1ncc(S(=O)(=O)N2CCC(F)(c3cn4ncnc4cc3F)CC2)c1C#N [Compound 503, 4-((4-fluoro-4-(7-fluoro-[1,2,4]triazolo[1,5-a]pyridin-6-yl)piperidin-1-yl)sulfonyl)-1-methyl-1H-pyrazole-5-carbonitrile] | 1150 |
| [2H]C([2H])([2H])Oc1c(S(=O)(=O)N2CCC(c3cn4ncnc4c(F)c3C)CC2)cnn1C [Compound 614, 8-fluoro-6-(1-((5-(methoxy-d3)-1-methyl-1H-pyrazol-4-yl)sulfonyl)piperidin-4-yl)-7-methyl-[1,2,4]triazolo[1,5-a]pyridine] | 59 |
| Cc1cc2ncnn2cc1C1CCN(S(=O)(=O)c2nncn2C)CC1 [Compound 524, 7-methyl-6-(1-((4-methyl-4H-1,2,4-triazol-3-yl)sulfonyl)piperidin-4-yl)-[1,2,4]triazolo[1,5-a]pyridine] | 493 |
| Cc1cc(S(=O)(=O)N2CCC(F)(c3cn4ncnc4cc3C)CC2)sn1 [Compound 561, 5-((4-fluoro-4-(7-methyl-[1,2,4]triazolo[1,5-a]pyridin-6-yl)piperidin-1-yl)sulfonyl)-3-methylisothiazole] | 181 |
| Cc1cc2ncccc2cc1C1CCN(S(=O)(=O)c2cnn3cccnc23)CC1 [Compound 448, 7-methyl-6-(1-(pyrazolo[1,5-a]pyrimidin-3-ylsulfonyl)piperidin-4-yl)quinoline] | 1990 |
| O=S(=O)(c1cnn2ccccc12)N1CCC(c2cn3ncnc3cc2C(F)F)CC1 [Compound 510, 7-(difluoromethyl)-6-(1-(pyrazolo[1,5-a]pyridin-3-ylsulfonyl)piperidin-4-yl)-[1,2,4]triazolo[1,5-a]pyridine] | 60 |
| Cc1cnccc1C1CCN(S(=O)(=O)c2cnn(C)c2C)CC1 [Compound 431, 4-(1-((1,5-dimethyl-1H-pyrazol-4-yl)sulfonyl)piperidin-4-yl)-3-methylpyridine] | 812 |
| Cc1cnc2ccccc2c1C1=CCN(S(=O)(=O)c2cnn(C)c2Cl)CC1 [Compound 427, 4-(1-((5-chloro-1-methyl-1H-pyrazol-4-yl)sulfonyl)-1,2,3,6-tetrahydropyridin-4-yl)-3-methylquinoline] | 32 |
| Cc1cc2ncccc2cc1C1CCN(S(=O)(=O)c2c(C)nn(C)c2C(F)(F)F)CC1 [Compound 445, 6(1-((1,3-dimethyl-5-(trifluoromethyl)-1H-pyrazol-4-yl)sulfonyl)piperidin-4-yl)-7-methylquinoline] | 1950 |
| Cc1nnc(S(=O)(=O)N2CCC(c3cn4ncnc4cc3Cl)CC2)s1 [Compound 540, 2-((4-(7-Chloro[1,2,4]triazolo[1,5-a]pyridin-6-yl)piperidin-1-yl)sulfonyl)-5-methyl-1,3,4-thiadiazole] | 28 |
| Cc1cc(S(=O)(=O)N2CCC(c3cn4ncnc4cc3F)CC2)sn1 [Compound 500, 5-((4-(7-fluoro-[1,2,4]triazolo[1,5-a]pyridin-6-yl)piperidin-1-yl)sulfonyl)-3-methylisothiazole] | 295 |
